Experimental findings from patent US8835440B2, “Cyclic pyrimidin-4-carboxamides as CCR2 receptor antagonists for treatment of inflammation, asthma and COPD” (Boehringer Ingelheim International GmbH, priority 2008, dated 2014) are described below.

The target of the assay is T1, CCR2 (Homo sapiens, UniProt P41597).
T1 construct: Membranes were prepared from THP-1 cells; endogenous in cells; host or cells: THP-1 cells (membrane preparation)
T1 sequence (P41597 1-360 isoform P41597-2): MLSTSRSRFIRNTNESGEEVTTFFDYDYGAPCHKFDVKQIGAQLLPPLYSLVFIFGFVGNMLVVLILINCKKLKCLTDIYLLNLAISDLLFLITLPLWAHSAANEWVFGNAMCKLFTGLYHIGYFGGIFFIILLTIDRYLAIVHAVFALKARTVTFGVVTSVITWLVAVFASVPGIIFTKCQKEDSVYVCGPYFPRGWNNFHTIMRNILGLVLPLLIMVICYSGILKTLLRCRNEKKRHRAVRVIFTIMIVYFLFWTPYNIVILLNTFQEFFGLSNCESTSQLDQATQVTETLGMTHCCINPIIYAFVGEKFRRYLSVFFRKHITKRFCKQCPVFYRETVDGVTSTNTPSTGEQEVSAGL
The assay is described as follows: CCR2 receptor membrane binding assay ([125I]MCP-1, THP-1 cell membranes, SPA beads). The following applies: for remaining activity at 10 µM: read-out: CCR2 % ctrl @ 10 μM; for Ki: dissociation constant hKi, [125I]MCP-1 binding to THP-1 membranes. As to the method: The above exemplary substances have been tested for binding to CCR2 using a binding assay as outlined herein below:
THP-1 cells (human acute monocytic leukaemia cells) were cultured under standardized conditions at 37° C. and 5% CO2 in a humidified incubator. THP-1 cells were cultivated in RPMI 1640 medium (Gibco 21875) containing 1% MEM-NEAA (Gibso 11140) 2 mM L-glutamine, 1.5 g/L sodium bicarbonate, 4.5 g/L glucose, 10 mM HEPES and 1.0 mM sodium pyruvate, 90%; 10% fetal calf serum (FCS Gibco 10500-064).
Membranes were prepared from THP-1 cells. THP-1 cells were centrifuged at 300×g at 4° C. for 10 min. The cell pellet was resuspendet in Phosphate Buffer Saline (PBS, including 10 μM Pefabloc and a protease inhibitor mix ‘complete’, Boehringer Mannheim (1 tablet/50 ml)), to a concentration of […]. The membrane preparation was performed by disrupting the cells by nitrogen […] (at 50 bar, for 1 h) in a “Nitrogen Bombe” (Parr Instrument). Cell debris was removed by centrifugation (800×g at 4° C., 1 min). The supernatant was centrifuged at 80000×g, 4° C. for 30 min to sediment the cell membranes. Usually 50 mg of protein (Bradford assay) were yielded from 1×10E9 cells. The membranes were resuspendet in 25 mM HEPES, 25 mM MgCl2, 1 mM CaCl2, 10% Glycerine for storage in aliquots at −80° C. in 25 mM HEPES, 25 mM MgCl2, 1 mM CaCl2, 10% Glycerine and stored at −80° C.
Receptor Membrane Binding Assay:
Perkin Elmer NEX 332 Jod 125 MCP-1, Stock: 2200 Ci/mmol solved in 2000 μl assay buffer, stored at −20° C. THP-1 membrane were adjusted with 25 mM HEPES, pH 7.2; 5 mM MgCl2; 0.5 mM CaCl2; 0.2% BSA assay buffer to a concentration of […]. Amersham Biosciences PVT-WGA Beads (RPNQ0001) were adjusted with assay buffer to a concentration of 0.24 mg/30 μl. For preparation of the membrane-bead-suspension membranes and beads were incubated for 30 min at RT under rotation (60 rpm) with a ratio of 1:2. Test compounds dissolved in 100% DMSO to a concentration of 10 mM and are further diluted with 100% DMSO to 1 mM. All additional compound dilutions were obtained with assay buffer, final 1% DMSO. Compounds, membrane-bead-suspension and [125I]MCP-1 (ca. 25000 cpm/10 μl) were incubated. Bound radioactivity was determined by scintillation counter after 8 h. Determination of affinity of test compounds (dissociation constant hKi) is calculated by iterative fitting of experimental data using the “easy sys” program, which is based on law of mass action (Schittkowski K. (1994), Numerische Mathematik, Vol. 68, 129-142).

Setting [1] is: @ 10 μM test compound, THP-1 membranes.

Regarding `Cc1c(NCc2ccc(Cl)c(Cl)c2)ncnc1C(=O)N1CCC(N2CCC(NS(=O)(=O)C(C)C)CC2)CC1` [Example 197], the Ki (in general, a dissociation constant, usually derived from enzyme kinetics or from competition with a known ligand) stood at 33 nM. Further, under setting [1], the remaining activity at 10 µM stood at 4%. Consider `C=Cc1c(NC[C@H]2CCC[C@@H](c3ccccc3)C2)ncnc1C(=O)N1CCC(N2CCC(N(C)S(C)(=O)=O)CC2)CC1` [Example 275dk], for which the Ki is 17 nM. In turn, `C#Cc1c(NC[C@H]2CCC[C@@H](c3ccccc3)C2)ncnc1C(=O)N1CCC(N2CCC(N(C)S(C)(=O)=O)CC2)CC1` [Example 275dl] came in with a Ki of 372 nM. `Cc1nc(NC[C@H]2CCN(c3ccccc3)C2)c(C)c(C(=O)N2CCC(N3CCC(N(C)S(C)(=O)=O)CC3)CC2)n1` [Example 159] registered a Ki of 25 nM. Moreover, the remaining activity at 10 µM under setting [1] came out at 4%. On the same counts, the results for `Cc1cc(CNc2ncnc(C(=O)N3CCC(N4CCC(N(C)S(C)(=O)=O)CC4)CC3)c2C)ccc1F` [Example 55] are 200 nM and 17%.

Molecule `Cc1c(NCc2cccc(OC(F)(F)F)c2)ncnc1C(=O)N1CCC(N2CCC(O)CC2)CC1` [Example 8] gave a Ki of 1020 nM. Under setting [1], the remaining activity at 10 µM was determined as 36%. The matching figures for `Cc1c(NCc2cccc(-c3ccccc3)c2)ncnc1C(=O)N1CCC(N2CCCOCC2)CC1` [Example 243]: 1620 nM and 40%.

`Cc1c(NCc2ccc(C(C)(C)C)cc2)ncnc1C(=O)N1CCC(N2CCOCC2)CC1` [Example 52] registered a Ki of 175 nM. For the same molecule, the remaining activity at 10 µM under setting [1] is 12%. The matching figures for `CNC(=O)C1(C)CCN(C2CCN(C(=O)c3ncnc(NCc4ccc(C(C)(C)C)cc4)c3C)CC2)CC1` [Example 224]: 1230 nM and 35%. On the same counts, the results for `Cc1c(NCc2ccc(Cl)c(Cl)c2)ncnc1C(=O)N1CCC(N2CC[C@H](C(N)=O)C2)CC1` [Example 256] are 438 nM and 25%.

The molecule `COC1CN(C(=O)c2ncnc(NCc3ccc(C(C)(C)C)cc3)c2C)CCC1N1CCC(N(C)S(C)(=O)=O)CC1` (centres unmarked) [Example 263] displayed a Ki of 1970 nM. Besides, the remaining activity at 10 µM under setting [1] came out at 27%. The matching figures for `Cc1c(NCc2ccc(C(F)(F)F)c(Cl)c2)ncnc1C(=O)N1CCC(N2CCCCC2)CC1` [Example 133]: 205 nM and 15%. The matching figures for `Cc1c(NCC2Cc3ccccc3O2)ncnc1C(=O)N1CCC(N2CCC(O)CC2)CC1` (centres unmarked) [Example 27]: 620 nM and 25%. `Cc1c(C(=O)N2CCC(N3CCC(O)CC3)CC2)ccnc1NCc1ccc(Cl)c(Cl)c1` [Example 275]: the affinity corresponds to a Ki of 593 nM. Further, the remaining activity at 10 µM under setting [1] stood at 19%. Molecule `Cc1c(NCC2CCOCC2)ncnc1C(=O)N1CCC(N2CCC(N(C)S(C)(=O)=O)CC2)CC1` [Example 159ac] gave a Ki of 5940 nM. The same measure, in the same setting: for `Cc1c(NCC2CCCC(C)C2)ncnc1C(=O)N1CCC(N2CCC(N(C)S(C)(=O)=O)CC2)CC1` (centres unmarked) [Example 159g] the value was 15 nM. In turn, `Cc1c(NCCc2ccc(Cl)c(Cl)c2)ncnc1C(=O)N1CCC(N2CCCCC2)CC1` [Example 2] returned a Ki of 222 nM. The remaining activity at 10 µM under setting [1] stood at 13%. `COc1ccc(CCNc2ncnc(C(=O)N3CCC(N4CCC(O)CC4)CC3)c2C)cc1Cl` [Example 119] displayed an inhibition constant Ki of 1030 nM. Where the note is “@ 10 μM test compound, THP-1 membranes, 10 µM”, the “CCR2 % ctrl @ 10 μM” value is listed as 37 % ctrl.

As for `Cc1c(NCC2CCCC(c3ccc(Cl)cc3)C2)ncnc1C(=O)N1CCC(N2CCC(N(C)S(C)(=O)=O)CC2)CC1` (centres unmarked) [Example 159da], the inhibitory constant (Ki) turned out to be 5 nM. Consider `Cc1ccc(CNc2ncnc(C(=O)N3CCC(N4CCC(O)CC4)CC3)c2C)cc1C` [Example 31], for which affinity was put at a Ki of 790 nM. Also, under setting [1], the remaining activity at 10 µM amounted to 28%. On to `Cc1cccc(C2CCC(CNc3ncnc(C(=O)N4CCC(N5CCC(N(C)S(C)(=O)=O)CC5)CC4)c3C)O2)c1` (centres unmarked) [Example 159ra], for which the affinity corresponds to a Ki of 22 nM. `Cc1c(NCc2ccc(C(C)(C)C)cc2)ncnc1C(=O)N1CCC(N2CCC[C@H]2CC(=O)N(C)C)CC1` [Example 217] had a Ki of 4330 nM. Moreover, under setting [1], the remaining activity at 10 µM stood at 54%. The matching figures for `Cc1c(NCCc2ccc(OC(F)(F)F)cc2)ncnc1C(=O)N1CCC(N2CCC(NS(C)(=O)=O)CC2)CC1` [Example 70]: 80 nM and 6%.

In the case of `Cc1c(NCc2ccc(Cl)c(Cl)c2)ncnc1C(=O)N1CCC(N(C)CC2(C)COC2)CC1` [Example 180], the affinity, expressed as Ki, was 4810 nM. In addition, the remaining activity at 10 µM under setting [1] was found to be 60%. The matching figures for `Cc1c(NCc2ccc(Cl)cc2)ncnc1C(=O)N1CCC(N2CCC(O)CC2)CC1` [Example 110]: 527 nM and 28%.

`COC1COCCC1N(C)C1CCN(C(=O)c2ncnc(NC[C@H]3CCC[C@@H](c4ccccc4)C3)c2C)CC1` (some centres unmarked) [Example 275dj] registered a Ki of 4 nM. As to `Cc1c(NCCc2ccc(OC(F)(F)F)cc2)ncnc1C(=O)N1CCC(N2CCC(O)CC2)CC1` [Example 14], affinity was put at a Ki of 387 nM. In addition, the remaining activity at 10 µM under setting [1] stood at 22%. `Cc1c(NCc2ccc(Cl)c(Cl)c2)ncnc1C(=O)N1CCC(N2CC[C@H](N(C)S(C)(=O)=O)C2)CC1` [Example 226] showed a Ki of 1170 nM. In addition, under setting [1], the remaining activity at 10 µM turned out to be 36%. On the same counts, the results for `Cc1nc(NCCc2ccc(Cl)c(Cl)c2)c(C)c(C(=O)N2CCC(N3CCC(O)CC3)CC2)n1` [Example 91] are 236 nM and 23%. On the same counts, the results for `Cc1c(NCCc2ccc(Cl)c(Cl)c2)ncnc1C(=O)N1CCC(N2CCC(NC(=O)C(C)C)CC2)CC1` [Example 170] are 705 nM and 31%. The molecule `CNC(=O)C1CCN(C2CCN(C(=O)c3ncnc(NCCc4ccc(Cl)c(Cl)c4)c3C)CC2)CC1` [Example 173] had a Ki of 89 nM. The remaining activity at 10 µM under setting [1] was found to be 6%.

Molecule `Cc1c(NCc2ccc(F)c(Cl)c2)ncnc1C(=O)N1CCC(N2CCCCC2)CC1` [Example 128] came in with a Ki of 445 nM. For the same molecule, under setting [1], the remaining activity at 10 µM was found to be 26%.

`Cc1c(NCc2ccc(Cl)c(Cl)c2)ncnc1C(=O)N1CCC(N2CC[C@H](NS(C)(=O)=O)C2)CC1` [Example 258] returned a Ki of 64 nM. Moreover, under setting [1], the remaining activity at 10 µM was 4%.

`Cc1c(OCc2ccc(C(C)(C)C)cc2)ncnc1C(=O)N1CCC(N2CCOCC2)CC1` [Example 298] displayed a Ki of 599 nM. Moreover, the remaining activity at 10 µM under setting [1] was determined as 17%. `COc1ccc(CCNc2ncnc(C(=O)N3CCC(N4CCC(O)CC4)CC3)c2C)cc1Cl` [Example 105] gave a Ki of 687 nM. Also, under setting [1], the remaining activity at 10 µM stood at 31%. On the same counts, the results for `Cc1c(Cc2ccc(C(C)(C)C)cc2)ncnc1C(=O)N1CCC(N2CCC(N(C)S(C)(=O)=O)CC2)CC1` [Example 268] are 119 nM and 5%. On the same counts, the results for `Cc1c(NCc2ccc(C(C)(C)C)cc2)ncnc1C(=O)N1CCC(N2CCCC2)C1` (centres unmarked) [Example 251] are 439 nM and 75%.

`Cc1c(NC[C@@H]2CCC[C@H](c3ccccc3)C2)ncnc1C(=O)N1CCC(N2CCC(N(C)S(C)(=O)=O)CC2)CC1` [Example 151] showed a Ki of 14 nM. Under setting [1], the remaining activity at 10 µM was found to be 7%. The molecule `Cc1ccc(CNc2ncnc(C(=O)N3CCC(N4CCC(N(C)S(C)(=O)=O)CC4)CC3)c2C)cc1F` [Example 65] showed a Ki of 176 nM. In addition, the remaining activity at 10 µM under setting [1] was 8%.
